In a melting point compilation (Tetko et al.; mined from patent text by program, amines drawn as free bases though some values may be those of a salt) one finds melting point data, which are given here for 33 compounds.

As to `Cn1ncc(C(=O)N2CCC2)c1C(=O)Nc1ccc2nc(-c3ccccc3)nn2c1`, the melting point fell in the range of 235 to 236 °C. In the case of `CCCCCCCOc1ccc(CCC(CO)(CCC)NC(=O)c2cc([N+](=O)[O-])cc([N+](=O)[O-])c2)cc1` (single isomer, unassigned; (-)), the melting point lay within 115 to 116 °C.

In the case of `CCCC(CCC)n1c(CC)nc2c1C(=O)N(C)C(C)N2c1ccc(Cl)cc1Cl` (stereo not drawn), the melting point fell in the range of 144 to 146 °C. With `Cc1ccc(O)cc1C(CCC(=O)O)Oc1cc(OCc2cccnc2)ccc1C#N` (racemic), the melting point lay within 198 to 200 °C.

On to `CN1CCN(c2n[nH]c(-c3ccc(Cl)cc3)c2-c2ccncc2)CC1`, for which the melting point lay in the range of 262 to 264 °C. In the case of `Cc1[nH][nH]c(=O)c1Cc1ccc2ccccc2c1`, the melting point lay within 240 to 244 °C. As for `O=C1c2ccccc2C(O)N1CCN1CCC(Cc2c[nH]c3ccc(F)cc23)CC1` (racemic), the melting point was found to be 183 °C. The result for `Cc1cc(-c2ccc(Cl)c(C)c2)nc(-c2cccc(-c3cccc(S(N)(=O)=O)c3)c2)n1` reads 201 °C; that for `CC(C)(C)OC(=O)N[C@H]1CCN(c2nc3c(cc2F)c(=O)[nH]c(=O)n3C2CC2)C1`, 220 to 222 °C; that for `Cc1ccc2c(Cl)c(Cl)ccc2n1`, 84 to 85 °C. The same measure for `CC1CCCCN1CCC(CCN(C(C)C)C(C)C)(C(N)=O)c1ccccc1F` (stereo not drawn): 90 to 91 °C; for `O=C(C(=O)c1cccc(Br)c1)c1cc[nH]c1`: 111 to 113 °C.

Compound `CN1CCC(c2c[nH]c3ccc(C(=O)c4ccc(N(C)C)cc4)cc23)CC1` showed a melting point of 103 to 104 °C.

In turn, `CCOC(=O)C(C(=O)OCC)n1cccc1C(=O)C(Cl)(Cl)Cl` showed a melting point of 67 to 69 °C. The result for `Cc1cc(F)ccc1C(=C(C=CC=O)c1nnnn1C)c1ccc(F)cc1C` reads 75 to 95 °C; that for `COc1ccc(N(Cc2ccc(C#N)cc2)n2ccnc2)cc1`, 207 °C. The result for `CC(C)C[C@H](NC(=O)c1ccccc1)C(=O)NC#N` reads 136 to 137 °C; that for `O=S(=O)(NCc1ccccc1)c1ccc2nc(S)sc2c1`, 214 to 215 °C; that for `Nc1ccc(-n2c(-c3ccccc3)cc3c2CCCC3)cc1C(=O)O`, 206 °C. The same measure for `COc1cc2c(Nc3cccc(Cl)c3F)ncnc2cc1O[C@H]1CCCN(C(=O)CN2CCN(C)CC2)C1`: 120 to 121 °C; for `O=C(OO)c1cccc(Cl)c1`: 127 to 129 °C. In turn, `CCOC(=O)COc1ccc(NC(=O)NC(=O)c2ccc(C#N)cc2)cc1` returned a melting point of 200 to 203 °C. In the case of `CC(C)(C)c1cc(C(=O)NCc2ccc(N)cc2)cc(C(C)(C)C)c1O`, the melting point lay within 188 to 189 °C.

Compound `C#CCN(c1ccc(C(=O)NCc2cccc(C#N)c2)cc1)C1CCc2cc3nc(C)[nH]c(=O)c3cc21` (racemic) showed a melting point of 260 °C. The same measure for `COC/C=C\c1cccc(C2(c3ccc(OC(F)F)cc3)N=C(N)N(C)C2=O)c1` (stereo not drawn): 41 to 44 °C; for `CC(C)n1nc(-c2cnc(N3CCOCC3)nc2-c2ccccc2)ccc1=O`: 200 to 202 °C. In turn, `C[C@H](C(=O)O)n1ccn(-c2ccc(OCC(F)(F)C(F)F)cc2)c1=O` came in with a melting point of 149 to 151 °C.

With `CCCN(CCC)NNc1nc(C(=O)c2ccccc2O)nc(C(=O)c2ccccc2O)n1`, the melting point lay within 254 to 255 °C. The result for `Cc1cn(-c2ccc3nnc4c(C)nc(C5CCCCC5)n4c3c2)c(C2CCCCC2)n1` reads 224 to 227 °C. `COc1ccc2cc(CCCOCCCCCCNCC(O)c3ccc(O)c(NS(C)(=O)=O)c3)ccc2c1` (stereo not drawn) displayed a melting point of 87 to 89 °C. The same measure for `COCCC(=O)C1(N)C=CC(N(C)C(C)=O)=C(C#N)C1` (stereo not drawn): 143 to 145 °C; for `Cc1cc(-c2cccc(C3=Nc4ccc(-c5ccc(F)cc5)cc4NC(=O)C3)c2)on1`: more than 250 °C; for `O=C(CCCN1CCN(c2ccc(F)cc2)CC1)NC1c2ccccc2CSc2ccccc21` (stereo not drawn): 194 °C.

The term melting point denotes the temperature of the solid-liquid transition.
